Test results as given in US11918013B2, “Composition for inactivation of gram-positive bacteria and bacterial spores and methods of making and using same” (RESORCIX LTD., priority 2018, dated 2024).
≈ marks a conversion by molar mass, not a printed value. Read-outs that look alike come from different tables or passages of the source.

System: Alicyclobacillus acidoterrestris (JCM catalogue number 21547, IAM Culture Collection no. 15086)
Assay: MIC against Alicyclobacillus acidoterrestris in apple juice (OD600 and CFU counting)
Format: cell-based
Conditions: 37° C.; for MIC: Alicyclobacillus acidoterrestris, 100% apple juice
Protocol: The fractions collected in Example 4, as well as Fraction 1 and nisin, a preservative presently in common use in the industry, were tested for activity by incubating for the times indicated in the table below with Alicyclobacillus acidoterrestris (JCM catalogue number 21547, IAM Culture Collection no. 15086) in apple juice. The minimum inhibitory concentration (MIC) was determined by optical density measurements at 600 nm, and by counting colony forming units (CFU) as follows: after four days of incubation at 37° C., juice samples were serially diluted in 10-fold increments (10-fold, 100-fold, 1000-fold, etc.) and plated on Potato Dextrose Agar (PDA). Plates were incubated at 45° C. for at least 48 hours, and colonies were counted to determine CFU/ml.

[1] = 48 h, 2 days of incubation, read-out: MIC (μg/ml) in 100% apple juice 2 days of incubation
[2] = 72 h, 3 days of incubation, read-out: MIC (μg/ml) in 100% apple juice 3 days of incubation
[3] = 120 h, 5 days of incubation, read-out: MIC (μg/ml) in 100% apple juice 5 days of incubation
[4] = 168 h, 7 days of incubation, read-out: MIC (μg/ml) in 100% apple juice 7 days of incubation

SMILES	MIC [1] [µg/mL]	MIC [2] [µg/mL]	MIC [3] [µg/mL]	MIC [4] [µg/mL]	MIC (μg/ml) in 100% apple juice 2 days of incubation (2 days of incubation) [µg/mL]	MIC (μg/ml) in 100% apple juice 3 days of incubation (3 days of incubation) [µg/mL]	MIC (μg/ml) in 100% apple juice 5 days of incubation (5 days of incubation) [µg/mL]	MIC (μg/ml) in 100% apple juice 7 days of incubation (7 days of incubation) [µg/mL]
CC1=CCC[C@@H]2[C@@](C)(CC/C(C)=C/C(=O)O)[C@H](C)CC[C@@]12C (single isomer, unassigned) [Sample 6, Kolavenic acid]	1.25 (≈ 4.11 µM)	1.25 (≈ 4.11 µM)	1.25 (≈ 4.11 µM)	1.25 (≈ 4.11 µM)	–	–	–	–
C=C1CC[C@@H]2C(C)(C)CCC[C@@]2(C)[C@@H]1CC/C(C)=C/C(=O)O (single isomer, unassigned) [Sample 7, copalic acid]	1.25 (≈ 4.11 µM)	1.25 (≈ 4.11 µM)	1.25 (≈ 4.11 µM)	1.25 (≈ 4.11 µM)	–	–	–	–
CC(=O)OC1CC2(C)C(C(=O)O)=CCCC2C(C)(CCc2ccoc2)C1C (stereo not drawn) [Sample 3, 7-α-acetoxyhardwickiic acid]	–	–	–	–	2.5	5	5	5
